Patent publication US9556437B2, “FAT1 gene in cancer and inflammation” (DEPARTMENT OF BIOTECHNOLOGY (DBT), priority 2012, dated 2017)

Tests used:
U87MG cells [1] = assay: In vitro Scratch Assay of cell migration; assay type: cell-based, human
Procedure: FIGS. 14A to 14D: Effect of NS-398 and FAT1 knockdown simultaneously on Cell Migration by In-vitro Scratch Assay. The in vitro Scratch Assay was performed at 72 hours after culturing cells as follows: At Day 0, 5,000 U87MG cells are plated per well of a 96 well plate. […] (C) Assay of cell migration by the Modified Boyden Chamber Assay under conditions of normoxia and hypoxia. (D) Quantitation of data from (C).
The Scratch Assay is performed at 72 hours after treatment. A scratch is made on the culture surface using a sterile 10 μl tip and cells were allowed to grow. Images were captured after every 3 hrs to monitor the closure of the wound in the culture surface for next 24 hrs.

[2] = system: colorectal and lung carcinoma cell lines; conditions: Elder 1997, Liu 1998; cited from earlier work
[3] = system: colon, esophageal and pancreatic carcinoma cell lines; conditions: Tsujii 1998, Zimmermann 1999, Molina 1999; cited from earlier work
COX-2 promoter = COX-2 promoter luciferase assay; assay type: cell-based, human; conditions: U87MG
Procedure: AP-1 and COX-2 Promoter Luciferase Assay: U87MG cells (40000 cells/well) were plated in 6-well plates in triplicate on day zero. On day 1, cells were transfected with siFAT1 and siControl. On day 2 cells were transiently transfected with 4×AP-1-luciferase reporter plasmids as described previously. Cells were transfected with 1 μg of AP-17× luciferase reporter plasmid, along with 50 ng of pRL-TK (Renilla luciferase) control plasmid using LIPOFECTAMINE2000 as the transfection reagent. After 48 hrs, the cells were lysed by 1× passive-lysis-buffer (Promega, Madison, Wis., USA) and assayed for luciferase activity as previously described. For COX-2 luciferase assay U87MG cells were transfected with siFAT1 and siControl on day 1 and after 4 hrs incubation were treated with 10 μM SR11302. On day2 cells were transiently transfected with COX-2 reporter plasmid and again treated with 10 μM SR11302. After 48 hrs, the cells were assayed for luciferase activity.

U87MG cells [4] = assay: Toxicity of SR11302 to cells; assay type: cell-based, human; conditions: 10 μM
Procedure: FIG. 11: Dose response curve of SR11302; U87MG cells were treated with increasing concentration of SR11302 from 0.1 μM to 10 μM.

| SMILES | inhibition of cell migration (U87MG cells [1]; Scratch Assay at 72 hours after treatment) | effect on migration under hypoxic versus normoxic culture (U87MG cells [1]; hypoxic conditions) | migration ability of cells (U87MG cells [1]; scratch and modified Boyden chamber assays, normoxic or hypoxic conditions (FIG. 14)) | apoptosis [2] | proliferation [2] | growth of carcinoma cell lines [3] | dose response of COX-2 luciferase activity (COX-2 promoter; 0.1 μM to 10 μM) | decrease in COX-2 luciferase activity (COX-2 promoter; vs siControl+DMSO, SR11302 10 μM, 48 hrs) [fold] | toxicity to the cells (U87MG cells [4]) |
| --- | --- | --- | --- | --- | --- | --- | --- | --- | --- |
| CS(=O)(=O)Nc1ccc([N+](=O)[O-])cc1OC1CCCCC1 [NS398] | about 70% | more pronounced | reduced | induce apoptosis | inhibit proliferation | growth-inhibitory effects |  |  |  |
| CC1=C(/C=C/C(=C/C=C/C(C)=C/C(=O)O)c2ccc(C)cc2)C(C)(C)CCC1 [SR11302] |  |  |  |  |  |  | dose dependent decrease | 5 | No toxicity |
